Results reported in USRE39591E1, “6-O-substituted ketolides having antibacterial activity” (Abbott Laboratories, priority 1996, dated 2007).
≈ marks a conversion by molar mass, not a printed value.

Tested on: up to 32 different microorganisms
Assay: in vitro antibacterial activity (MIC), agar dilution on Brain Heart Infusion (BHI) agar with Steers replicator
Type: cell-based
Conditions: unit assumed
Protocol: Representative compounds of the present invention were assayed in vitro for antibacterial activity as follows: Twelve petri dishes containing successive aqueous dilutions of the test compound mixed with 10 mL of sterilized Brain Heart Infusion (BHI) agar (Difco 0148-01-5) were prepared. Each plate was inoculated with 1:100 (or 1:10 for slow-growing strains, such as Micrococcus and Streptococcus) dilutions of up to 32 different microorganisms, using a Steers replicator block. The inoculated plates were incubated at 35°-37° C. for 20 to 24 hours. In addition, a control plate, using BHI agar containing no test compound, was prepared and incubated at the beginning and end of each test.
An additional plate containing a compound having known susceptibility patterns for the organisms being tested and belonging to the same antibiotic class as the test compound was also prepared and incubated as a further control, as well as to provide test-to-test comparability. Erythromycin A was used for this purpose.
After incubation, each plate was visually inspected. The minimum inhibitory concentration (MIC) was defined as the lowest concentration of drug yielding no growth, a slight haze, or sparsely isolated colonies on the inoculum spot as compared to the growth control.

[1] = Candida albicans CCH 442 (code TT)
[2] = Enterococcus faecism ATCC 8043 (code II)
[3] = Escherichia coli DC-2 (code SS)
[4] = Escherichia coli JUHL (code QQ)
[5] = Haemophilis influenzae DILL AMP R (code WW)
[6] = Micrococcus luteus ATCC 4698 (code PP)
[7] = Micrococcus luteus ATCC 9341 (code OO)
[8] = Mycobacterium smegmatis ATCC 114 (code UU)
[9] = Nocardia Asteroides ATCC9970 (code VV)
[10] = Staphylococcus aureus 1775 (code GG)
[11] = Staphylococcus aureus A5177 (code BB)
[12] = Staphylococcus aureus A-5278 (code CC)
[13] = Staphylococcus aureus ATCC 6538P (code AA)
[14] = Staphylococcus aureus CMX 553 (code FF)
[15] = Staphylococcus aureus CMX 642A (code DD)
[16] = Staphylococcus aureus NCTC10649M (code EE)
[17] = Staphylococcus epidermidis 3519 (code HH)
[18] = Streptococcus Pneumonia 5649 (code ZZA)
[19] = Streptococcus Pneumonia 5979 (code ZZ)
[20] = Streptococcus Pneumonia ATCC6303 (code XX)
[21] = Streptococcus Pneumonia GYR 1171 (code YY)
[22] = Streptococcus agalactiae CMX 508 (code KK)
[23] = Streptococcus bovis A-5169 (code JJ)
[24] = Streptococcus pyogenes 930 (code MM)
[25] = Streptococcus pyogenes EES61 (code LL)
[26] = Streptococcus pyogenes PIU 2548 (code NN)

CC[C@H]1OC(=O)[C@H](C)C(=O)[C@H](C)[C@@H](O[C@@H]2O[C@H](C)C[C@H](N(C)C)[C@H]2O)[C@@](C)(OCC=Cc2ccccc2)C[C@@H](C)C(=O)[C@H](C)[C@@H](O)[C@]1(C)O [Example 14, Compound of Formula (VIII): X is O, R is —CH2CH═CH-Phenyl]
MIC [1]: > 100 µg/mL
MIC [2]: 0.78 µg/mL
MIC [3]: > 100 µg/mL
MIC [4]: > 100 µg/mL
MIC (Escherichia coli SS (code RR)): 6.2 µg/mL
MIC [5]: 128 µg/mL
MIC [6]: 0.78 µg/mL
MIC [7]: 0.39 µg/mL
MIC [8]: 3.1 µg/mL
MIC [9]: 3.1 µg/mL
MIC [10]: > 100 µg/mL
MIC [11]: 1.56 µg/mL
MIC [12]: > 100 µg/mL
MIC [13]: 1.56 µg/mL
MIC [14]: 3.1 µg/mL
MIC [15]: 3.1 µg/mL
MIC [16]: 3.1 µg/mL
MIC [17]: 1.56 µg/mL
MIC [18]: 2 µg/mL
MIC [19]: 128 µg/mL
MIC [20]: 1 µg/mL
MIC [21]: 0.25 µg/mL
MIC [22]: 0.2 µg/mL
MIC [23]: 0.2 µg/mL
MIC [24]: 50 µg/mL
MIC [25]: 0.39 µg/mL
MIC [26]: 0.78 µg/mL

CCC1OC(=O)C(C)C(=O)C(C)C(OC2OC(C)CC(N(C)C)C2O)C(C)(OCC#CC=Cc2ccccc2)CC(C)C(=O)C(C)C2NC(=O)OC12C (stereo not shown) [Example 291, Compound of Formula (IX): L is CO, T is NH, R is —CH2C≡C-(2-phenylethenyl)]
MIC (organism code AA): 0.05 µg/mL
MIC (organism code BB): 0.05 µg/mL
MIC (organism code CC): > 100 µg/mL
MIC (organism code DD): 0.05 µg/mL
MIC (organism code EE): 0.05 µg/mL
MIC (organism code FF): 0.05 µg/mL
MIC (organism code GG): > 100 µg/mL
MIC (organism code HH): 0.05 µg/mL
MIC (organism code II): 0.02 µg/mL
MIC (organism code JJ): ≤ 0.005 µg/mL
MIC (organism code KK): ≤ 0.005 µg/mL
MIC (organism code LL): ≤ 0.005 µg/mL
MIC (organism code MM): 3.1 µg/mL
MIC (organism code NN): 0.1 µg/mL
MIC (organism code OO): ≤ 0.005 µg/mL
MIC (organism code PP): 0.05 µg/mL
MIC (organism code QQ): 25 µg/mL
MIC (organism code RR): 0.1 µg/mL
MIC (organism code SS): 50 µg/mL
MIC (organism code TT): > 100 µg/mL
MIC (organism code UU): 0.39 µg/mL
MIC (organism code VV): 0.01 µg/mL
MIC (organism code WW): 2 µg/mL
MIC (organism code XX): ≤ 0.004 µg/mL
MIC (organism code YY): ≤ 0.004 µg/mL
MIC (organism code ZZ): 1 µg/mL
MIC (organism code ZZA): 0.125 µg/mL

CCC1OC(=O)C(C)C(=O)C(C)C(OC2OC(C)CC(N(C)C)C2O)C(C)(OCC=Cc2cnc3ccccc3c2)CC(C)C(=O)C(C)C2N(CC=Cc3cnc4ccccc4c3)C(=O)OC12C (stereo not shown) [Example 184, Compound of Formula (IX): L is CO, T is T is N (CH2CH═CH-(3-quinolyl)), R is —CH2CH═CH-(3-quinolyl)]
MIC [1]: > 100 µg/mL
MIC [2]: 0.2 µg/mL
MIC [3]: > 100 µg/mL
MIC [4]: > 100 µg/mL
MIC (Escherichia coli SS (code RR)): 12.5 µg/mL
MIC [5]: > 128 µg/mL
MIC [6]: 0.78 µg/mL
MIC [7]: 0.39 µg/mL
MIC [8]: 6.2 µg/mL
MIC [9]: 3.1 µg/mL
MIC [10]: > 100 µg/mL
MIC [11]: 1.56 µg/mL
MIC [12]: > 100 µg/mL
MIC [13]: 3.1 µg/mL
MIC [14]: 1.56 µg/mL
MIC [15]: 3.1 µg/mL
MIC [16]: 3.1 µg/mL
MIC [17]: 3.1 µg/mL
MIC [18]: 2 µg/mL
MIC [19]: 32 µg/mL
MIC [20]: 1 µg/mL
MIC [21]: 0.5 µg/mL
MIC [22]: 0.1 µg/mL
MIC [23]: 0.1 µg/mL
MIC [24]: 25 µg/mL
MIC [25]: 0.1 µg/mL
MIC [26]: 1.56 µg/mL

CC[C@H]1OC(=O)[C@H](C)C(=O)[C@H](C)[C@@H](O[C@@H]2O[C@H](C)C[C@H](N(C)C)[C@H]2O)[C@@](C)(OCc2ccc3ccccc3c2)C[C@@H](C)C(=O)[C@H](C)[C@H]2NC(=O)O[C@@]21C [Example 176, Compound of Formula (IX): L is CO, T is NH, R is —CH2-(2-naphthyl)]
MIC [1]: > 100 µg/mL
MIC [2]: 0.2 µg/mL
MIC [3]: > 100 µg/mL
MIC [4]: > 100 µg/mL
MIC (Escherichia coli SS (code RR)): 3.1 µg/mL
MIC [5]: 64 µg/mL
MIC [6]: 0.2 µg/mL
MIC [7]: 0.05 µg/mL
MIC [8]: 0.78 µg/mL
MIC [9]: 1.56 µg/mL
MIC [10]: 100 µg/mL
MIC [11]: 0.78 µg/mL
MIC [12]: > 100 µg/mL
MIC [13]: 1.56 µg/mL
MIC [14]: 0.78 µg/mL
MIC [15]: 1.56 µg/mL
MIC [16]: 0.78 µg/mL
MIC [17]: 0.78 µg/mL
MIC [18]: 0.25 µg/mL
MIC [19]: 64 µg/mL
MIC [20]: 0.25 µg/mL
MIC [21]: 0.25 µg/mL
MIC [22]: 0.05 µg/mL
MIC [23]: 0.05 µg/mL
MIC [24]: 50 µg/mL
MIC [25]: 0.05 µg/mL
MIC [26]: 0.2 µg/mL

CCC1OC(=O)C(C)C(=O)C(C)C(OC2OC(C)CC(N(C)C)C2O)C(C)(OCC=Cc2ccc3nc(C)ccc3c2)CC(C)C(=O)C(C)C2NC(=O)OC12C (stereo not shown) [Example 197, R is —CH2CH═CH-(2-methyl-6-quinolyl)]
MIC [1]: > 100 µg/mL
MIC [2]: 0.05 µg/mL (≈ 0.0641 µM)
MIC [3]: 100 µg/mL (≈ 128 µM)
MIC [4]: 100 µg/mL (≈ 128 µM)
MIC (Escherichia coli SS (code RR)): 0.2 µg/mL (≈ 0.256 µM)
MIC [6]: 0.2 µg/mL (≈ 0.256 µM)
MIC [7]: 0.02 µg/mL (≈ 0.0256 µM)
MIC [8]: 1.56 µg/mL (≈ 2 µM)
MIC [9]: 0.1 µg/mL (≈ 0.128 µM)
MIC [10]: > 100 µg/mL
MIC [11]: 0.1 µg/mL (≈ 0.128 µM)
MIC [12]: > 100 µg/mL
MIC [13]: 0.1 µg/mL (≈ 0.128 µM)
MIC [14]: 0.2 µg/mL (≈ 0.256 µM)
MIC [15]: 0.1 µg/mL (≈ 0.128 µM)
MIC [16]: 0.2 µg/mL (≈ 0.256 µM)
MIC [17]: 0.1 µg/mL (≈ 0.128 µM)
MIC [22]: ≤ 0.005 µg/mL
MIC [23]: ≤ 0.005 µg/mL
MIC [24]: 100 µg/mL (≈ 128 µM)
MIC [25]: ≤ 0.005 µg/mL
MIC [26]: 0.1 µg/mL (≈ 0.128 µM)

CC[C@H]1OC(=O)[C@H](C)C(=O)[C@H](C)[C@@H](O[C@@H]2O[C@H](C)C[C@H](N(C)C)[C@H]2O)[C@@](C)(OCCNCCCc2cnc3ccccc3c2)C[C@@H](C)C(=O)[C@H](C)[C@H]2NC(=O)O[C@@]21C [Example 225, Compound of Formula (IX): L is CO, T is NH, R is —CH2CH2NHCH2CH2CH2-(3-quinolyl)]
MIC (organism code AA): 0.2 µg/mL
MIC (organism code BB): 0.39 µg/mL
MIC (organism code CC): > 100 µg/mL
MIC (organism code DD): 0.39 µg/mL
MIC (organism code EE): 0.39 µg/mL
MIC (organism code FF): 0.1 µg/mL
MIC (organism code GG): > 100 µg/mL
MIC (organism code HH): 0.2 µg/mL
MIC (organism code II): 0.05 µg/mL
MIC (organism code JJ): 0.01 µg/mL
MIC (organism code KK): 0.01 µg/mL
MIC (organism code LL): 0.01 µg/mL
MIC (organism code MM): > 100 µg/mL
MIC (organism code NN): 0.39 µg/mL
MIC (organism code OO): 0.02 µg/mL
MIC (organism code PP): 0.1 µg/mL
MIC (organism code QQ): 12.5 µg/mL
MIC (organism code RR): 0.1 µg/mL
MIC (organism code SS): 12.5 µg/mL
MIC (organism code TT): > 100 µg/mL
MIC (organism code UU): 3.1 µg/mL
MIC (organism code VV): 0.2 µg/mL
MIC (organism code WW): 4 µg/mL
MIC (organism code XX): 0.03 µg/mL
MIC (organism code YY): 0.06 µg/mL
MIC (organism code ZZ): > 128 µg/mL
MIC (organism code ZZA): 2 µg/mL
